Laboratory results as given in patent US20240279278A1, “NMU RECEPTOR 2 AGONISTS” (Boehringer Ingelheim International GmbH, priority 2023, published 2024).
Residues, ends and D or L forms follow the SMILES beside them.

Experiments:
[1] = target: T1, human NMUR2 receptor (Homo sapiens, UniProt Q9GZQ4); test: IP1 Gq HTRF assay, activation of human NMUR2 in buffer; format: cell-based; set-up: expressed in transfected cells; host or cells: CHO-K1; conditions: for EC50: CHO-K1 cells expressing human NMUR2, stimulation buffer with 0.1% BSA, read-out: EC50 (hNMUR2) buffer; for EC50 (hNMUR1)/EC50 (hNMUR2): selectivity for NMUR2 over NMUR1 from IP1 assay in buffer (Example 3)
T1 sequence (Q9GZQ4 whole entry): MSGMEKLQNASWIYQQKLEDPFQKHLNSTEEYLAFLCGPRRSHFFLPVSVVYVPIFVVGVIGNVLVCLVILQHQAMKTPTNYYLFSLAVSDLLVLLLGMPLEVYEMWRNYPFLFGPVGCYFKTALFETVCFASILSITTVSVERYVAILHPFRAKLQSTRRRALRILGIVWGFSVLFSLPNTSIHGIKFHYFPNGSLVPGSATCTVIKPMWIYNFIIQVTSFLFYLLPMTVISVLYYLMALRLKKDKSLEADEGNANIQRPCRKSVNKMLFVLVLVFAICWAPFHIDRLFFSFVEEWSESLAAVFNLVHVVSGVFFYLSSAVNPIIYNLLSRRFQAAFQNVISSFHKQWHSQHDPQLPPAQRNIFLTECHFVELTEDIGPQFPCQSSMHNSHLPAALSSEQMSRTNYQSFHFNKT
Summary of the method: (§1)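 IP-One HTRF competition (665/620 nm ratio) read after 1 h agonist exposure at 37 °C in pH 7.4 HEPES/HBSS stimulation buffer containing 50 mM LiCl, 0.1% BSA, 1% DMSO. Cells: CHO-K1 stably expressing human NMUR2 or NMUR1. EC50 by 4-parameter nonlinear regression of 8-point curves.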

[2] = target: T2, human NMUR1 receptor (Homo sapiens, UniProt Q9HB89); test: IP1 Gq HTRF assay, activation of human NMUR1 in buffer; format: cell-based; conditions: CHO-K1 cells expressing human NMUR1, stimulation buffer with 0.1% BSA; read-out: EC50 (hNMUR1) buffer
T2 construct: expressed in transfected cells; host or cells: CHO-K1
T2 sequence (Q9HB89 1-426): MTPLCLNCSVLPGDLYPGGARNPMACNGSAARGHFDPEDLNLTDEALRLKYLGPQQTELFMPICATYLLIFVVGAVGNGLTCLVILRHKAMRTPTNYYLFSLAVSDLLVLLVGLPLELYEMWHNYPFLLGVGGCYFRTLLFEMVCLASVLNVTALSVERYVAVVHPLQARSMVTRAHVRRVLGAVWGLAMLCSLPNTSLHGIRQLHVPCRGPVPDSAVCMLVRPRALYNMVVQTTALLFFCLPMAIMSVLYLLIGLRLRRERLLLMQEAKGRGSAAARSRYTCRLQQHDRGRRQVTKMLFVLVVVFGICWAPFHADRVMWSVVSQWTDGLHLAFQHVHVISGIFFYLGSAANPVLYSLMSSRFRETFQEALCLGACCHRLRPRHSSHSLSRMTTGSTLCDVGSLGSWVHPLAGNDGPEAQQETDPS
Summary of the method: as §1

[3] = target: T1, human NMUR2 receptor; test: IP1 Gq HTRF assay, activation of human NMUR2 in human plasma; format: cell-based; set-up: expressed in transfected cells; host or cells: CHO-K1; conditions: CHO-K1 cells expressing human NMUR2, 100% human plasma; read-out: EC50 (hNMUR2) human plasma
Summary of the method: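 EC50 obtained via 4-parameter sigmoidal regression of HTRF IP-One signal (665 nm/620 nm), which falls as intracellular IP1 rises. Stimulation: 1 h, 37° C, peptides in human plasma plus 50 mM LiCl, 1% DMSO final, on NMUR2-expressing CHO-K1 cells, 8 concentrations.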

[4] = Effect on acute food intake in normal NMRI mice; format: in vivo; conditions: male NMRI mice, single subcutaneous dose 100 nmol/kg, normalized to vehicle group
Procedure: Example 9: Pharmacodynamics Effect on Acute Food Intake in Normal NMRI Mice
Male NMRI mice were obtained from Charles River (Charles River, Research Models & Services Germany GmbH) or from JanVier (JanVier Labs, France) at 3 weeks of age. The animals were group housed 4 mice pr. cage under a 12/12 hours dark-light cycle, light off at 3 pm. Room temperature was controlled to 21° C.±1° C., with 60%±20% humidity. Animals had ad libitum access to regular rodent chow (KLIBA Nafag 3430 or Altromin 1324, Brogaarden, Denmark) and tap water. Animals were transferred at 6 weeks of age, 5-7 days before the start of the study to a real-time food intake monitoring system, HM-2 system (MBRose, Denmark), to allow acclimatization to experimental conditions. As the animals were uniquely identified with microchips, each individual animal was identified by its microchip upon entry and exit from the food channel. Randomization of the mice for each study group (n=8-11) was based on body weight measured the day before the start of the study. A vehicle-treated (50 mM acetate buffer pH 7.4 with 3.5% mannitol) group was included in each experiment. Six hours before the start of the night phase animals were fasted. One hour before the dark phase animals were dosed once subcutaneously with test peptide. Food intake was reported hourly for a period of 24 hours. The food intake of the treated groups was normalized (in %) to the average food intake of the group receiving vehicle (table 10). Statistical significance was evaluated using One-way analysis of variance with Bonferroni's multiple comparison test. P<0.05 was considered statistically significant.

Compound | EC50 [1] [nM] | EC50 (hNMUR1)/EC50 (hNMUR2) [1] | EC50 [2] [nM] | EC50 [3] [nM] | Acute Food Intake 24 h [4] [% vehicle]
CCCC[C@H](NC(=O)[C@H](CC(C)C)N(C)C(=O)[C@H](Cc1ccccc1)NC(=O)[C@H](Cc1ccc(O)cc1)NC(=O)CN1CCN(CCNC(=O)CN(C)C(=O)CN(C)C(=O)CN(C)C(=O)CN(C)C(=O)CN(C)C(=O)CN(C)C(=O)CN(C)C(=O)CN(C)C(=O)CN(C)C(=O)CN(C)C(=O)CN(C)C(=O)CN(C)C(=O)CN(C)C(=O)CN(C)C(=O)CN(C)C(=O)CC[C@H](NC(=O)CC[C@H](NC(=O)CC[C@H](NC(=O)CCCCCCCCCCCCCCCCCCC(=O)O)C(=O)O)C(=O)O)C(=O)O)CC1)C(=O)N[C@@H](CCCN)C(=O)N1CCC[C@H]1C(=O)N[C@@H](CCCNC(=N)N)C(=O)NCC(N)=O [Compound 1, C20DA-gGlu3-Sar15-AEPipAc-Tyr-Phe-NMeLeu-Nle-Orn-Pro-Arg-Gly-NH2] (HELM PEPTIDE1{[O=C(O)CCCCCCCCCCCCCCCCCCC(=O)[*:2]].[gGlu].[gGlu].[gGlu].[Sar].[Sar].[Sar].[Sar].[Sar].[Sar].[Sar].[Sar].[Sar].[Sar].[Sar].[Sar].[Sar].[Sar].[Sar].[O=C(CN1CCN(CCN[*:1])CC1)[*:2]].Y.F.[meL].[Nle].[Orn].P.R.G.[am]}$$$$V2.0) | 1.4 | 635 | 890 | 2.8 | 31
CCCC[C@H](NC(=O)[C@H](CC(C)C)N(C)C(=O)[C@H](Cc1ccccc1)NC(=O)[C@H](Cc1ccc(O)cc1)NC(=O)CN1CCN(CCNC(=O)CN(C)C(=O)CN(C)C(=O)CN(C)C(=O)CN(C)C(=O)CN(C)C(=O)CN(C)C(=O)CN(C)C(=O)CN(C)C(=O)CN(C)C(=O)CN(C)C(=O)CN(C)C(=O)CN(C)C(=O)CN(C)C(=O)CN(C)C(=O)CN(C)C(=O)CC[C@H](NC(=O)CC[C@H](NC(=O)CC[C@H](NC(=O)CCCCCCCCCCCCCCCCC(=O)O)C(=O)O)C(=O)O)C(=O)O)CC1)C(=O)N[C@@H](CCCNC(=N)N)C(=O)N1CCC[C@H]1C(=O)N[C@@H](CCCNC(=N)N)C(=O)NCC(N)=O [Compound 7, C18DA-gGlu3-Sar15-AEPipAc-Tyr-Phe-NMeLeu-Nle-Arg-Pro-Arg-Gly-NH2] (HELM PEPTIDE1{[O=C(O)CCCCCCCCCCCCCCCCC(=O)[*:2]].[gGlu].[gGlu].[gGlu].[Sar].[Sar].[Sar].[Sar].[Sar].[Sar].[Sar].[Sar].[Sar].[Sar].[Sar].[Sar].[Sar].[Sar].[Sar].[O=C(CN1CCN(CCN[*:1])CC1)[*:2]].Y.F.[meL].[Nle].R.P.R.G.[am]}$$$$V2.0) | 1.2 | 208 | 250 | 4.4 | 46
CCCC[C@H](NC(=O)[C@H](CC(C)C)N(C)C(=O)[C@H](Cc1ccccc1)NC(=O)[C@H](Cc1ccc(O)cc1)NC(=O)CN1CCN(CCNC(=O)CN(C)C(=O)CN(C)C(=O)CN(C)C(=O)CN(C)C(=O)CN(C)C(=O)CN(C)C(=O)CN(C)C(=O)CN(C)C(=O)CN(C)C(=O)CN(C)C(=O)CN(C)C(=O)CN(C)C(=O)CN(C)C(=O)CN(C)C(=O)CN(C)C(=O)CC[C@H](NC(=O)CC[C@H](NC(=O)CC[C@H](NC(=O)CCCCCCCCCCCCCCCCC(=O)O)C(=O)O)C(=O)O)C(=O)O)CC1)C(=O)N[C@@H](CCN)C(=O)N1CCC[C@H]1C(=O)N[C@@H](CCCNC(=N)N)C(=O)NCC(N)=O [Compound 26, C18DA-gGlu3-Sar15-AEPipAc-Tyr-Phe-NMeLeu-Nle-Dbu-Pro-Arg-Gly-NH2] (HELM PEPTIDE1{[O=C(O)CCCCCCCCCCCCCCCCC(=O)[*:2]].[gGlu].[gGlu].[gGlu].[Sar].[Sar].[Sar].[Sar].[Sar].[Sar].[Sar].[Sar].[Sar].[Sar].[Sar].[Sar].[Sar].[Sar].[Sar].[O=C(CN1CCN(CCN[*:1])CC1)[*:2]].Y.F.[meL].[Nle].[Dab].P.R.G.[am]}$$$$V2.0) | 1.5 |  | > 1000 | 3.9 | 37
